Test system: lesional psoriatic skin grafted onto SCID mice
Assay: SCID mouse psoriatic skin graft model, methotrexate alone or in combination with low dose 5D12
Assay type: in vivo
Settings: methotrexate 0.1 to 0.4 mg/kg increasing regimen in combination with the isotype control antibody
Method: This experiment was conducted, using the mouse model described in Example 1, to quantitate the anti-psoriatic effects of low doses of anti-CD40 antibody. The low-dose treatment with antibody 5D12 consisted of intraperitoneal injections of mice with 0.5 mg/kg 5D12 every other day for two weeks. High-dose treatment consisted of intraperitoneal injections of mice with 5 mg/kg 5D12 every other day for two weeks. […] The treatment control group consisted of mice injected intraperitoneally with isotype control antibody for two weeks. Four weeks after the termination of the treatments, the grafts were harvested and either fixed in formaldehyde or snap-frozen. Fixed material was used for morphological analyses based on H+E staining, and the snap-frozen material used for additional immunohistochemical analyses.
The effects of methotrexate treatment alone or in combination with low dose (0.5 mg/kg) 5D12 treatment were evaluated. An increasing dosing regimen was chosen, starting with 0.1 mg/kg and increasing the dose by 0.05 mg/kg every week until 0.4 mg/kg was reached. The scheme was combined with the application of the isotype control antibody or with the low dose 5D12 treatment schedule. The isotype control treatment served as a negative control and the low dose 5D12 treatment as a positive control.

## CN(Cc1cnc2nc(N)nc(N)c2n1)c1ccc(C(=O)N[C@@H](CCC(=O)O)C(=O)O)cc1 [Methotrexate]
  effects on epidermal thickness (in words): only minimal effects on epidermal thickness

Reference: patent US20110091472A1, “COMPOSITIONS FOR TREATING PSORIASIS” (Novartis Vaccines and Diagnostic, Inc., priority 1999, published 2011)
